Columns and labels:
NLRP3 inflammasome = NLRP3 inflammasome (Homo sapiens, UniProt Q96P20); experiment: Inhibition of IL-1β release, NLRP3 inflammasome activation assay in HMDM; assay type: cell-based; details: inhibition of IL-1β release, class symbols, read-out: Avg. IL-1β IC50 HMDM
Method: The following assays can be used to determine inhibitory activity of test compounds on the NLRP3 inflammasome using common stimuli such as adenosine triphosphate, nigericin, LeuLeu-OMe or monosodium urate crystals (MSU).
To generate HMDM, human monocytes are isolated from buffy coat blood using Ficoll-Plaque Plus (GE Healthcare) and density centrifugation. CD14^+ cell selection is performed using MACS magnetic beads (Miltenyl Biotec).
HMDM are seeded at 1×10^5/ml. […] Medium is removed and replaced with serum free medium (SFM) containing test compound 30 min prior to NLRP3 stimulation. […] ATP can be sourced from Sigma Aldrich, nigericin and MSU from Invivogen and LeuLeu-Ome from Chem-Impex International.
For ELISA and cell death assays cells are seeded in 96 well plates. Supernatants are removed and analysed using ELISA kits according to the manufacturer's instructions (DuoSet® R&D Systems, ReadySetGo!® eBioscience, BD OptEIA™, or Perkin Elmer AlphaLISA®). Cell death is assessed by measurement of LDH release relative to a 100% cell lysis control using the CytoTox96® non-radioactive cytotoxicity assay (Promega).

[1] = Single dose pharmacokinetic study in mice (iv 4 mg/Kg, po 20 mg/Kg), plasma concentration post-dosing; assay type: in vivo, mouse; details: mice, iv dose of 4 mg/Kg and po dose of 20 mg/Kg
Method: This is advantageous leading to comparatively lower doses or less frequent administration. The procedure followed was: Male C57BL/6 mice were used at 7-9 weeks age with 3 animals per group. Mice were dosed with test compound using single intravenous bolus or oral gavage. Blood samples were taken via submandibular or saphenous vein for analysis of plasma concentrations of compound by LC-MS/MS at the following timepoints: IV (3 mice): 0.083, 0.25, 0.5, 1, 2, 4, 8 and 24 hours post dosing, PO (3 mice): 0.25, 0.5, 1, 2, 4, 8 and 24 hours post dosing. LC-MS/MS method for the quantitative determination of test compound in corresponding biological matrix was developed. […] The results are shown graphically in FIGS. 1A to 1C (MCC950) and FIGS. 2A to 2C (MCC7840).

Chain of NLRP3 inflammasome (Q96P20 whole entry): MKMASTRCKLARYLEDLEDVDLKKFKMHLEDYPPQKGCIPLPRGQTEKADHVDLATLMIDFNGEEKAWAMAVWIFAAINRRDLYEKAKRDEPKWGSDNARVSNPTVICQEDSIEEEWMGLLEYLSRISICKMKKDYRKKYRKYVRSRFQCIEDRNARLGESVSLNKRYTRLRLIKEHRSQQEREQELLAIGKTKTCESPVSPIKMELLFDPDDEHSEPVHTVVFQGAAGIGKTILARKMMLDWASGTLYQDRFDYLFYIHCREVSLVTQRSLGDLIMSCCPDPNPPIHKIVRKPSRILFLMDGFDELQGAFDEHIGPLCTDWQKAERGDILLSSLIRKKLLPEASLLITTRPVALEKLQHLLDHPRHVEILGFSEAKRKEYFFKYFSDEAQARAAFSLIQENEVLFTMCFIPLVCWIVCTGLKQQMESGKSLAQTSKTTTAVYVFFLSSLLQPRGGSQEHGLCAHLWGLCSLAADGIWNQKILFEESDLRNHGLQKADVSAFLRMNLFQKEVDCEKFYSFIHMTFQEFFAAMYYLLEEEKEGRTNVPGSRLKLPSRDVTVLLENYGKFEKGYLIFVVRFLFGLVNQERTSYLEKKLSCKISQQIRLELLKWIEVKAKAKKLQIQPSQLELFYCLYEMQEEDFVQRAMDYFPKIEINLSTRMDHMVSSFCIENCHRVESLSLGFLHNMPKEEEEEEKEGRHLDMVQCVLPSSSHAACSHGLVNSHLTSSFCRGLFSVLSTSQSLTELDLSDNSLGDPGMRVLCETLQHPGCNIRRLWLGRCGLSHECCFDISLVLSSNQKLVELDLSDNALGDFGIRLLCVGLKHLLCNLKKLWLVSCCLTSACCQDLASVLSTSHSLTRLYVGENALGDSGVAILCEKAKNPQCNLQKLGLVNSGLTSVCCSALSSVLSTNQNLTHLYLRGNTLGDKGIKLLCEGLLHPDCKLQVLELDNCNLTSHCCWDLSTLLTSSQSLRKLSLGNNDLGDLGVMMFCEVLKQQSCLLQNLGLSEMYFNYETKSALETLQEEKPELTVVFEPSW

## O=C(Nc1c2c(cc3c1CCC3)CCC2)NS(=O)(=O)c1cccc(C(=O)O)c1 [3-(N-((1,2,3,5,6,7-hexahydro-s-indacen-4-yl)carbamoyl)sulfamoyl)benzoic acid]
NLRP3 inflammasome
  IC50: < 100 nM

## CN(C)c1ccc2c(CC(=O)NCCc3ccc(S(=O)(=O)NC(=O)Nc4c5c(cc6c4CCC6)CCC5)cc3)cc(=O)oc2c1 [2-(7-(Dimethylamino)-2-oxo-2H-chromen-4-yl)-N-(4-(N-(1,2,3,5,6,7-hexahydro-s-indacen-4-ylcarbamoyl)sulfamoyl)phenethyl)acetamide]
NLRP3 inflammasome
  IC50: < 1000 nM

## [N-]=[N+]=Nc1cccc(S(=O)(=O)NC(=O)Nc2c3c(cc4c2CCC4)CCC3)c1 [3-Azido-N-((1,2,3,5,6,7-hexahydro-s-indacen-4-yl)carbamoyl)benzenesulfonamide]
NLRP3 inflammasome
  IC50: < 1000 nM

## CC(C)c1cc(S(=O)(=O)NC(=O)Nc2c3c(cc4c2CCC4)CCC3)nn1C [N-((1,2,3,5,6,7-hexahydro-s-indacen-4-yl)carbamoyl)-5-isopropyl-1-methyl-1H-pyrazole-3-sulfonamide]
NLRP3 inflammasome
  IC50: < 1000 nM

## COc1ccccc1S(=O)(=O)NC(=O)Nc1c2c(cc3c1CCC3)CCC2 [N-((1,2,3,5,6,7-hexahydro-s-indacen-4-yl)carbamoyl)-2-methoxybenzenesulfonamide]
NLRP3 inflammasome
  IC50: < 1000 nM

## O=C(Nc1cccc2cccnc12)NS(=O)(=O)c1cccc(C2(C(F)(F)F)N=N2)c1 [N-(quinolin-8-ylcarbamoyl)-3-(3-(trifluoromethyl)-3H-diazirin-3-yl)benzenesulfonamide]
NLRP3 inflammasome
  IC50: < 10000 nM

## [2H]C([2H])([2H])C(O)(c1cc(S(=O)(=O)NC(=O)Nc2c3c(cc4c2CCO4)CCC3)oc1C)C([2H])([2H])[2H] [4-(2-hydroxypropan-2-yl-1,1,1,3,3,3-d6)-5-methyl-N-((3,5,6,7-tetrahydro-2H-indeno[5,6-b]furan-4-yl)carbamoyl)furan-2-sulfonamide]
NLRP3 inflammasome
  IC50: < 100 nM

## CN(C)S(=O)(=O)c1cccc(S(=O)(=O)NC(=O)Nc2c3c(cc4c2CCC4)CCC3)c1 [N1-((1,2,3,5,6,7-hexahydro-s-indacen-4-yl)carbamoyl)-N3,N3-dimethylbenzene-1,3-disulfonamide]
NLRP3 inflammasome
  IC50: < 100 nM

## COc1cc(NC(=O)NS(=O)(=O)c2cccc(C3(C(F)(F)F)N=N3)c2)c2ncccc2c1 [N-((6-methoxyquinolin-8-yl)carbamoyl)-3-(3-(trifluoromethyl)-3H-diazirin-3-yl)benzenesulfonamide]
NLRP3 inflammasome
  IC50: < 50000 nM

## CC(C)n1ccc(S(=O)(=O)NC(=O)Nc2c3c(cc4c2CCC4)CCC3)n1 [MCC7840, N-((1,2,3,5,6,7-hexahydro-s-indacen-4-yl)carbamoyl)-1-isopropyl-1H-pyrazole-3-sulfonamide]
[1]
  area under the curve (AUC) in comparison to MCC950: increased
  half-life in comparison to MCC950: extended half-life
  maximum concentration (Cmax) in comparison to MCC950: increased maximum concentration (Cmax)

## CC(C)c1cc(Cl)cc(C(C)C)c1NC(=O)NS(=O)(=O)c1cccc2ncccc12 [N-((4-chloro-2,6-diisopropylphenyl)carbamoyl)quinoline-5-sulfonamide]
NLRP3 inflammasome
  IC50: < 1000 nM

## CC(C)(O)c1cccc(S(=O)(=O)NC(=O)Nc2c3c(cc4c2CCC4)CCC3)c1 [N-((1,2,3,5,6,7-hexahydro-s-indacen-4-yl)carbamoyl)-3-(2-hydroxypropan-2-yl)benzenesulfonamide]
NLRP3 inflammasome
  IC50: < 100 nM

## O=C(Nc1c2c(cc3c1CCC3)CCC2)NS(=O)(=O)C1CCCC1 [N-((1,2,3,5,6,7-hexahydro-s-indacen-4-yl)carbamoyl)cyclopentanesulfonamide]
NLRP3 inflammasome
  IC50: < 10000 nM

## NCCCn1cc(CCC(=O)Nc2cccc(S(=O)(=O)NC(=O)Nc3c4c(cc5c3CCC5)CCC4)c2)nn1 [3-(1-(3-aminopropyl)-1H-1,2,3-triazol-4-yl)-N-(3-(N-((1,2,3,5,6,7-hexahydro-s-indacen-4-yl)carbamoyl)sulfamoyl)phenyl)propanamide]
NLRP3 inflammasome
  IC50: < 1000 nM

## O=C(Nc1c2c(cc3c1CCC3)CCC2)NS(=O)(=O)c1ccn(CCN2CCCCC2)n1 [N-((1,2,3,5,6,7-hexahydro-s-indacen-4-yl)carbamoyl)-1-(2-(piperidin-1-yl)ethyl)-1H-pyrazole-3-sulfonamide]
NLRP3 inflammasome
  IC50: < 10000 nM
